From US12442042B2, “Epigenomic profiling reveals the somatic promoter landscape of primary gastric adenocarcinoma” (AGENCY FOR SCIENCE, TECHNOLOGY AND RESEARCH, priority 2016, dated 2025)

Key:
[1] = tested on: IM95 GC cells; experiment: EZH2 inhibition: RNA-seq of GSK126-treated IM95 cells at promoter loci; assay type: cell-based, human
Method: IM95 were treated with GSK126 (Selleck, USA), a selective EZH2 inhibitor, at a concentration of 5 μM. Cell proliferation was monitored in 96-well plates post-treatment with GSK126 using the CellTiter-Glo® Luminescent Cell Viability Assay (Promega) for three independent experiments. For RNA-seq analysis, total RNA was extracted using the Qiagen RNAeasy mini kit according to manufacturer's instructions. Cells were treated with GSK126 (Selleck, USA; dissolved in DMSO) at a concentration of 5 μM. Control cells were treated with the same concentration of DMSO (0.1%). RNAseq differential analysis for promoter loci was carried out using edgeR on read counts mapping to H3K4me3 regions estimated using featureCounts. RNAseq gene level differential analysis was performed using cuffdiff2.2.1.

[2] = tested on: PBMCs; experiment: EpiMAX assay: cytokine multiplex on supernatants of PBMCs stimulated with peptide pools; assay type: cell-based, human
Method: A set of peptides for 15 representative alternative promoters was purchased from GenScript (GenScript). Peptide sequences and composition of peptide pools for each alternative promoter are described in Table 3. Control peptide pools for human Actin were purchased from JPT (PM-ACTS, PepMix™ Human (Actin) JPT). Peripheral blood mononuclear cells (PBMCs) were obtained from 9 healthy volunteers of whom 8 PBMC samples were HLA-typed (Table 3).
PBMCs were labelled with 1 μM CFSE (Life Technologies, Thermo Fisher Scientific) and cultured at a density of 200,000 cells per well in complete culture medium (cRPMI comprising RPMI 1640 medium (Gibco, Thermo Fisher Scientific), 15 mM HEPES (Gibco), 1% non-essential amino acid (Gibco), 1 mM sodium pyruvate (Gibco), 1% penicillin/streptomycin (Gibco), 2 mM L-glutamine (Gibco), 50 μM β2-mercaptoethanol (Sigma, Merck), and 10% heat-inactivated FCS (Hyclone)) for 5 days. Individual peptide pools of each alternative promoter were added at the start of the culture at a concentration of 1 μg/ml for each peptide. At the end of day 5, cells were stained with LIVE/DEAD® fixable near-IR dead cell stain kit (Life Technologies), and labelled with CD4-BUV737 (BD), CD8-PacificBlue (BD), CD3-PE (BioLegend), CD19-PE/TexasRed (Beckman), and CD56-APC (BD). Analysis of T cell proliferation by CFSE dilution was performed by flow cytometry using a LSRII (BD). In addition, magnetic bead-based cytokine multiplex analysis (human cytokine panel 1, Millipore, Merck) was performed on cell culture supernatants to measure secreted cytokine levels.

[3] = Donor 1 PBMCs stimulated with peptide pool
[4] = Donor 2 PBMCs stimulated with peptide pool
[5] = Donor 3 PBMCs stimulated with peptide pool
[6] = Donor 4 PBMCs stimulated with peptide pool
[7] = Donor 5 PBMCs stimulated with peptide pool
[8] = Donor 6 PBMCs stimulated with peptide pool
[9] = Donor 7 PBMCs stimulated with peptide pool
[10] = Donor 8 PBMCs stimulated with peptide pool
[11] = Donor 9 PBMCs stimulated with peptide pool

## CC[C@H](C)n1cc(C)c2c(C(=O)NCc3c(C)cc(C)[nH]c3=O)cc(-c3ccc(N4CCNCC4)nc3)cc21 [GSK126]
[1]; 78/87, FC>=2, qval<0.1
  deregulated promoters mapping to somatic promoters lost in primary GC that were reactivated: 89.6%
[1]; Day 6 and 9, RNA-seq
  gene sets of genes upregulated upon EZH2 inhibition: enriched in previously identified PRC2 target gene sets
[1]; Fisher Test, P<0.001
  OR, somatic promoters vs all GSK126 regulated genes: 9.21
  OR, somatic promoters vs unaltered promoters changing expression: 1.46
[1]; GSK126 5 μM, Day 6 and 9, RNA-seq
  promoters deregulated in total: 2134
[1]; GSK126 5 μM, RNA-seq
  proportion of somatic promoters deregulated: 12.8%
  proportion of unaltered promoters exhibiting deregulation: 8.8%
  somatic promoters deregulated (of 1959 promoters exhibiting somatic alterations in primary GCs): 251
  total proportion of genes (as defined by Gencode) regulated: 1.5%
[1]; day 6 (D6) and Day 9 (D9)
  expression at PSCA TSS (lost somatic promoter): Gain of expression
  expression at SLC9A9 TSS (lost somatic promoter): Gain of expression
  expression at alternative promoter ESRRG (lost promoter activity): Gain of expression

## Actin
[2]; [3]
  Analyte concentration GM-CSF: 19.57 pg/mL
  Analyte concentration IFNg: 147.18 pg/mL
  Analyte concentration IL-2: 34.21 pg/mL
  Analyte concentration IL-3: 1.46 pg/mL
  Analyte concentration IL-4: 0.03 pg/mL
  Analyte concentration IL-7: 0.085 pg/mL
  Analyte concentration IL-9: 1.22 pg/mL
  Analyte concentration IL-10: 10.1 pg/mL
  Analyte concentration IL-13: 14.2 pg/mL
  Analyte concentration IL-15: 0.925 pg/mL
  Analyte concentration IL-17A: 0.02 pg/mL
  Analyte concentration TNFa: 101.44 pg/mL
  Analyte concentration sCD40L: 0.78 pg/mL
  Fold change of total cytokine response (normalized against Actin control): 1.00
  Total analytes: 331.40 pg/mL
[2]; [4]
  Analyte concentration GM-CSF: 15.58 pg/mL
  Analyte concentration IFNg: 7.71 pg/mL
  Analyte concentration IL-2: 11.28 pg/mL
  Analyte concentration IL-3: 0.76 pg/mL
  Analyte concentration IL-4: 0.03 pg/mL
  Analyte concentration IL-7: 1.73 pg/mL
  Analyte concentration IL-9: 1.22 pg/mL
  Analyte concentration IL-10: 5.29 pg/mL
  Analyte concentration IL-13: 13.75 pg/mL
  Analyte concentration IL-15: 0.925 pg/mL
  Analyte concentration IL-17A: 0.02 pg/mL
  Analyte concentration TNFa: 9.18 pg/mL
  Analyte concentration sCD40L: 1.81 pg/mL
  Fold change of total cytokine response (normalized against Actin control): 1.00
  Total analytes: 69.29 pg/mL
[2]; [5]
  Analyte concentration GM-CSF: 56.66 pg/mL
  Analyte concentration IFNg: 60.86 pg/mL
  Analyte concentration IL-2: 13.4 pg/mL
  Analyte concentration IL-3: 0.56 pg/mL
  Analyte concentration IL-4: 4.53 pg/mL
  Analyte concentration IL-7: 0.085 pg/mL
  Analyte concentration IL-9: 1.22 pg/mL
  Analyte concentration IL-10: 2.56 pg/mL
  Analyte concentration IL-13: 5.96 pg/mL
  Analyte concentration IL-15: 0.925 pg/mL
  Analyte concentration IL-17A: 2.89 pg/mL
  Analyte concentration TNFa: 20.69 pg/mL
  Analyte concentration sCD40L: 0.01 pg/mL
  Fold change of total cytokine response (normalized against Actin control): 1.00
  Total analytes: 170.35 pg/mL
[2]; [6]
  Analyte concentration GM-CSF: 0.66 pg/mL
  Analyte concentration IFNg: 0.01 pg/mL
  Analyte concentration IL-2: 1.27 pg/mL
  Analyte concentration IL-3: 0.005 pg/mL
  Analyte concentration IL-4: 0.03 pg/mL
  Analyte concentration IL-7: 0.085 pg/mL
  Analyte concentration IL-9: 1.22 pg/mL
  Analyte concentration IL-10: 0.18 pg/mL
  Analyte concentration IL-13: 0.99 pg/mL
  Analyte concentration IL-15: 0.925 pg/mL
  Analyte concentration IL-17A: 0.02 pg/mL
  Analyte concentration TNFa: 1.49 pg/mL
  Analyte concentration sCD40L: 0.01 pg/mL
  Fold change of total cytokine response (normalized against Actin control): 1.00
  Total analytes: 6.90 pg/mL
[2]; [7]
  Analyte concentration GM-CSF: 0.66 pg/mL
  Analyte concentration IFNg: 1.65 pg/mL
  Analyte concentration IL-2: 1.4 pg/mL
  Analyte concentration IL-3: 0.005 pg/mL
  Analyte concentration IL-4: 0.03 pg/mL
  Analyte concentration IL-7: 0.085 pg/mL
  Analyte concentration IL-9: 1.22 pg/mL
  Analyte concentration IL-10: 5.5 pg/mL
  Analyte concentration IL-13: 1.44 pg/mL
  Analyte concentration IL-15: 0.925 pg/mL
  Analyte concentration IL-17A: 0.02 pg/mL
  Analyte concentration TNFa: 3.08 pg/mL
  Analyte concentration sCD40L: 0.01 pg/mL
  Fold change of total cytokine response (normalized against Actin control): 1.00
  Total analytes: 16.03 pg/mL
[2]; [8]
  Analyte concentration GM-CSF: 18.18 pg/mL
  Analyte concentration IFNg: 135.48 pg/mL
  Analyte concentration IL-2: 11.03 pg/mL
  Analyte concentration IL-3: 0.5 pg/mL
  Analyte concentration IL-4: 0.03 pg/mL
  Analyte concentration IL-7: 0.085 pg/mL
  Analyte concentration IL-9: 1.22 pg/mL
  Analyte concentration IL-10: 4.66 pg/mL
  Analyte concentration IL-13: 8.77 pg/mL
  Analyte concentration IL-15: 0.925 pg/mL
  Analyte concentration IL-17A: 2.22 pg/mL
  Analyte concentration TNFa: 38.39 pg/mL
  Analyte concentration sCD40L: 0.01 pg/mL
  Fold change of total cytokine response (normalized against Actin control): 1.00
  Total analytes: 222.13 pg/mL
[2]; [9]
  Analyte concentration GM-CSF: 3.31 pg/mL
  Analyte concentration IFNg: 6.53 pg/mL
  Analyte concentration IL-2: 0.77 pg/mL
  Analyte concentration IL-3: 0.01 pg/mL
  Analyte concentration IL-4: 0.03 pg/mL
  Analyte concentration IL-7: 2.29 pg/mL
  Analyte concentration IL-9: 1.22 pg/mL
  Analyte concentration IL-10: 7.7 pg/mL
  Analyte concentration IL-13: 0.14 pg/mL
  Analyte concentration IL-15: 0.925 pg/mL
  Analyte concentration IL-17A: 0.02 pg/mL
  Analyte concentration TNFa: 48.35 pg/mL
  Analyte concentration sCD40L: 0.01 pg/mL
  Fold change of total cytokine response (normalized against Actin control): 1.00
  Total analytes: 71.31 pg/mL
[2]; [10]
  Analyte concentration GM-CSF: 0.66 pg/mL
  Analyte concentration IFNg: 1.12 pg/mL
  Analyte concentration IL-2: 1.9 pg/mL
  Analyte concentration IL-3: 0.22 pg/mL
  Analyte concentration IL-4: 0.03 pg/mL
  Analyte concentration IL-7: 0.085 pg/mL
  Analyte concentration IL-9: 1.22 pg/mL
  Analyte concentration IL-10: 3.61 pg/mL
  Analyte concentration IL-13: 0.03 pg/mL
  Analyte concentration IL-15: 0.925 pg/mL
  Analyte concentration IL-17A: 0.02 pg/mL
  Analyte concentration TNFa: 2.64 pg/mL
  Analyte concentration sCD40L: 0.58 pg/mL
  Fold change of total cytokine response (normalized against Actin control): 1.00
  Total analytes: 13.04 pg/mL
[2]; [11]
  Analyte concentration GM-CSF: 0.66 pg/mL
  Analyte concentration IFNg: 3.49 pg/mL
  Analyte concentration IL-2: 0.77 pg/mL
  Analyte concentration IL-3: 0.36 pg/mL
  Analyte concentration IL-4: 0.03 pg/mL
  Analyte concentration IL-7: 2.01 pg/mL
  Analyte concentration IL-9: 1.22 pg/mL
  Analyte concentration IL-10: 2.13 pg/mL
  Analyte concentration IL-13: 1.05 pg/mL
  Analyte concentration IL-15: 0.925 pg/mL
  Analyte concentration IL-17A: 0.58 pg/mL
  Analyte concentration TNFa: 56.18 pg/mL
  Analyte concentration sCD40L: 0.01 pg/mL
  Fold change of total cytokine response (normalized against Actin control): 1.00
  Total analytes: 69.42 pg/mL
